Test system: JAK1-dependent STAT6 phosphorylation downstream of IL-13 stimulation in TF-1 human erythroleukemia cells
Assay: cells
Settings: TF-1, read-out: IL-13-pSTAT6 IC50

Going from `O=C(NCC1CCNC1)c1ccc(Nc2nc3c(C4=CCN(C(=O)CCC(F)(F)F)CC4)cccn3n2)cc1` (centres unmarked) [Example 2-444, N-(pyrrolidin-3-ylmethyl)-4-[[8-[1-(4,4,4-trifluorobutanoyl)-3,6-dihydro-2H-pyridin-4-yl]-[1,2,4]triazolo[1,5-a]pyridin-2-yl]amino]benzamide] to `CN1CCC(CNC(=O)c2ccc(Nc3nc4c(C5=CCN(C(=O)CCC(F)(F)F)CC5)cccn4n3)cc2)CC1` [Example 2-467, N-[(1-methyl-4-piperidyl)methyl]-4-[[8-[1-(4,4,4-trifluorobutanoyl)-3,6-dihydro-2H-pyridin-4-yl]-[1,2,4]triazolo[1,5-a]pyridin-2-yl]amino]benzamide], the IC50 falls from 154 nM to 20.9 nM (7.4-fold). The second is the more potent here.

Compared with `O=C(NC1CCNCC1)c1ccc(Nc2nc3c(C4=CCN(C(=O)CCC(F)(F)F)CC4)cccn3n2)cc1` [Example 2-445, N-(4-piperidyl)-4-[[8-[1-(4,4,4-trifluorobutanoyl)-3,6-dihydro-2H-pyridin-4-yl]-[1,2,4]triazolo[1,5-a]pyridin-2-yl]amino]benzamide], `CN1CCC(NC(=O)c2ccc(Nc3nc4c(C5=CCN(C(=O)CCC(F)(F)F)CC5)cccn4n3)cc2)C1` (centres unmarked) [Example 2-459, N-(1-methylpyrrolidin-3-yl)-4-[[8-[1-(4,4,4-trifluorobutanoyl)-3,6-dihydro-2H-pyridin-4-yl]-[1,2,4]triazolo[1,5-a]pyridin-2-yl]amino]benzamide] is 22-fold lower in IC50: 456 nM for the first, 20.5 nM for the second. The second is the more potent here.

`NCC1CCN(C(=O)c2ccc(Nc3nc4c(C5=CCN(C(=O)CCC(F)(F)F)CC5)cccn4n3)cc2)CC1` [Example 2-446, 1-[4-[2-[4-[4-(aminomethyl)piperidine-1-carbonyl]anilino]-[1,2,4]triazolo[1,5-a]pyridin-8-yl]-3,6-dihydro-2H-pyridin-1-yl]-4,4,4-trifluoro-butan-1-one] and `NCC1CCN(C(=O)c2ccc(Nc3nc4c(C5=CCN(C(=O)CCC(F)(F)F)CC5)cccn4n3)cc2)C1` (centres unmarked) [Example 2-447, 1-[4-[2-[4-[3-(aminomethyl)pyrrolidine-1-carbonyl]anilino]-[1,2,4]triazolo[1,5-a]pyridin-8-yl]-3,6-dihydro-2H-pyridin-1-yl]-4,4,4-trifluoro-butan-1-one] are within 1.5-fold of each other in IC50: 208 nM for the first, 275 nM for the second.

`O=C(CCC(F)(F)F)N1CC=C(c2cccn3nc(Nc4ccc(C(=O)N5CCO[C@@H]6CNC[C@H]65)cc4)nc23)CC1` [Example 2-448, 1-[4-[2-[4-[(4aR,7aR)-3,4a,5,6,7,7a-hexahydro-2H-pyrrolo[3,4-b][1,4]oxazine-4-carbonyl]anilino]-[1,2,4]triazolo[1,5-a]pyridin-8-yl]-3,6-dihydro-2H-pyridin-1-yl]-4,4,4-trifluoro-butan-1-one] and `O=C(CCC(F)(F)F)N1CC=C(c2cccn3nc(Nc4ccc(C(=O)N5CCOC6CCNCC65)cc4)nc23)CC1` (centres unmarked) [Example 2-453, 1-[4-[2-[4-(2,3,4a,5,6,7,8,8a-octahydropyrido[4,3-b][1,4]oxazine-4-carbonyl)anilino]-[1,2,4]triazolo[1,5-a]pyridin-8-yl]-3,6-dihydro-2H-pyridin-1-yl]-4,4,4-trifluoro-butan-1one] are within 1.5-fold of each other in IC50: 120 nM for the first, 171 nM for the second.

Compared with `O=C(CCC(F)(F)F)N1CC=C(c2cccn3nc(Nc4ccc(C(=O)N5C[C@H]6CN[C@H]6C5)cc4)nc23)CC1` [Example 2-449, 1-[4-[2-[4-[(1R,5R)-3,6-diazabicyclo[3.2.0]heptane-3-carbonyl]anilino]-[1,2,4]triazolo[1,5-a]pyridin-8-yl]-3,6-dihydro-2H-pyridin-1-yl]-4,4,4-trifluoro-butan-1-one], `CN(C)C1CCN(C(=O)c2ccc(Nc3nc4c(C5=CCN(C(=O)CCC(F)(F)F)CC5)cccn4n3)cc2)C1` (centres unmarked) [Example 2-464, 1-[4-[2-[4-[3-(dimethylamino)pyrrolidine-1-carbonyl]anilino]-[1,2,4]triazolo[1,5-a]pyridin-8-yl]-3,6-dihydro-2H-pyridin-1-yl]-4,4,4-trifluoro-butan-1-one] is 39-fold lower in IC50: 355 nM for the first, 9.1 nM for the second. The second is the more potent here.

`O=C(CCC(F)(F)F)N1CC=C(c2cccn3nc(Nc4ccc(C(=O)N5CCCCC56CCNCC6)cc4)nc23)CC1` [Example 2-450, 1-[4-[2-[4-(1,9-diazaspiro[5.5]undecane-1-carbonyl)anilino]-[1,2,4]triazolo[1,5-a]pyridin-8-yl]-3,6-dihydro-2H-pyridin-1-yl]-4,4,4-trifluoro-butan-1-one] and `NCC12CC(CN1C(=O)c1ccc(Nc3nc4c(C5=CCN(C(=O)CCC(F)(F)F)CC5)cccn4n3)cc1)C2` [Example 2-452, 1-[4-[2-[4-[4-(aminomethyl)-3-azabicyclo[2.1.1]hexane-3-carbonyl]anilino]-[1,2,4]triazolo[1,5-a]pyridin-8-yl]-3,6-dihydro-2H-pyridin-1-yl]-4,4,4-trifluoro-butan-1-one] are within 1.5-fold of each other in IC50: 115 nM for the first, 134 nM for the second.

Going from `CN(C(=O)c1ccc(Nc2nc3c(C4=CCN(C(=O)CCC(F)(F)F)CC4)cccn3n2)cc1)C1CNC1` [Example 2-451] to `O=C(N[C@H]1[C@@H]2CNC[C@@H]21)c1ccc(Nc2nc3c(C4=CCN(C(=O)CCC(F)(F)F)CC4)cccn3n2)cc1` [Example 2-454, N-[(1R,5S)-3-azabicyclo[3.1.0]hexan-6-yl]-4-[[8-[1-(4,4,4-trifluorobutanoyl)-3,6-dihydro-2H-pyridin-4-yl]-[1,2,4]triazolo[1,5-a]pyridin-2-yl]amino]benzamide], the IC50 falls from 287 nM to 87.9 nM (3.3-fold). The second is the more potent here.

Compared with `O=C(NCCN1CCCCC1)c1ccc(Nc2nc3c(C4=CCN(C(=O)CCC(F)(F)F)CC4)cccn3n2)cc1` [Example 2-455, N-[2-(1-piperidyl)ethyl]-4-[[8-[1-(4,4,4-trifluorobutanoyl)-3,6-dihydro-2H-pyridin-4-yl]-[1,2,4]triazolo[1,5-a]pyridin-2-yl]amino]benzamide], `O=C(NCCN1CCCC1)c1ccc(Nc2nc3c(C4=CCN(C(=O)CCC(F)(F)F)CC4)cccn3n2)cc1` [Example 2-466, N-(2-pyrrolidin-1-ylethyl)-4-[[8-[1-(4,4,4-trifluorobutanoyl)-3,6-dihydro-2H-pyridin-4-yl]-[1,2,4]triazolo[1,5-a]pyridin-2-yl]amino]benzamide] is 3.3-fold higher in IC50: 5.5 nM for the first, 17.9 nM for the second.

Going from `O=C(CCC(F)(F)F)N1CC=C(c2cccn3nc(Nc4ccc(C(=O)N5CCC(c6ccncc6)CC5)cc4)nc23)CC1` [Example 2-456, 4,4,4-trifluoro-1-[4-[2-[4-[4-(4-pyridyl)piperidine-1-carbonyl]anilino]-[1,2,4]triazolo[1,5-a]pyridin-8-yl]-3,6-dihydro-2H-pyridin-1-yl]butan-1-one] to `Cc1cccc(C2CCN(C(=O)c3ccc(Nc4nc5c(C6=CCN(C(=O)CCC(F)(F)F)CC6)cccn5n4)cc3)CC2)n1` [Example 2-468, 4,4,4-trifluoro-1-[4-[2-[4-[4-(6-methyl-2-pyridyl)piperidine-1-carbonyl]anilino]-[1,2,4]triazolo[1,5-a]pyridin-8-yl]-3,6-dihydro-2H-pyridin-1-yl]butan-1-one], the IC50 rises from 7.5 nM to 12.8 nM (1.7-fold).

Compared with `CN1C2COCC1CN(C(=O)c1ccc(Nc3nc4c(C5=CCN(C(=O)CCC(F)(F)F)CC5)cccn4n3)cc1)C2` [Example 2-458, 4,4,4-trifluoro-1-[4-[2-[4-(9-methyl-3-oxa-7,9-diazabicyclo[3.3.1]nonane-7-carbonyl)anilino]-[1,2,4]triazolo[1,5-a]pyridin-8-yl]-3,6-dihydro-2H-pyridin-1-yl]butan-1-one], `CC1CCCN(C2CCN(C(=O)c3ccc(Nc4nc5c(C6=CCN(C(=O)CCC(F)(F)F)CC6)cccn5n4)cc3)CC2)C1` (centres unmarked) [Example 2-461, 4,4,4-trifluoro-1-[4-[2-[4-[4-(3-methyl-1-piperidyl)piperidine-1-carbonyl]anilino]-[1,2,4]triazolo[1,5-a]pyridin-8-yl]-3,6-dihydro-2H-pyridin-1-yl]butan-1-one] is 7.5-fold lower in IC50: 45.9 nM for the first, 6.1 nM for the second. The second is the more potent here.

`CN(Cc1ccc2ncccc2c1)C(=O)c1ccc(Nc2nc3c(C4=CCN(C(=O)CCC(F)(F)F)CC4)cccn3n2)cc1` [Example 2-460, N-methyl-N-(6-quinolylmethyl)-4-[[8-[1-(4,4,4-trifluorobutanoyl)-3,6-dihydro-2H-pyridin-4-yl]-[1,2,4]triazolo[1,5-a]pyridin-2-yl]amino]benzamide] and `CC(C)N1CCC(CN(C)C(=O)c2ccc(Nc3nc4c(C5=CCN(C(=O)CCC(F)(F)F)CC5)cccn4n3)cc2)C1` (centres unmarked) [Example 2-463, N-[(1-isopropylpyrrolidin-3-yl)methyl]-N-methyl-4-[[8-[1-(4,4,4-trifluorobutanoyl)-3,6-dihydro-2H-pyridin-4-yl]-[1,2,4]triazolo[1,5-a]pyridin-2-yl]amino]benzamide] are within 1.5-fold of each other in IC50: 27.6 nM for the first, 26 nM for the second.

First: O=C(CCC(F)(F)F)N1CC=C(c2cccn3nc(Nc4ccc(C(=O)N5CCN(CCn6ccnc6)CC5)cc4)nc23)CC1 [Example 2-462, 4,4,4-trifluoro-1-[4-[2-[4-[4-(2-imidazol-1-ylethyl)piperazine-1-carbonyl]anilino]-[1,2,4]triazolo[1,5-a]pyridin-8-yl]-3,6-dihydro-2H-pyridin-1-yl]butan-1-one]
Second: O=C(NCCN1CCOCC1)c1ccc(Nc2nc3c(C4=CCN(C(=O)CCC(F)(F)F)CC4)cccn3n2)cc1 [Example 2-465, N-(2-morpholinoethyl)-4-[[8-[1-(4,4,4-trifluorobutanoyl)-3,6-dihydro-2H-pyridin-4-yl]-[1,2,4]triazolo[1,5-a]pyridin-2-yl]amino]benzamide]
The IC50 of the first is 4.7-fold higher: 44.4 nM for the first, 9.4 nM for the second. The second is the more potent here.

Compared with `O=C(N[C@H]1CN2CCC1CC2)c1ccc(Nc2nc3c(C4=CCN(C(=O)CCC(F)(F)F)CC4)cccn3n2)cc1` [Example 2-469, N-[(3R)-quinuclidin-3-yl]-4-[[8-[1-(4,4,4-trifluorobutanoyl)-3,6-dihydro-2H-pyridin-4-yl]-[1,2,4]triazolo[1,5-a]pyridin-2-yl]amino]benzamide], `CNC(=O)C1CN(C(=O)c2ccc(Nc3nc4c(C5=CCN(C(=O)CCC(F)(F)F)CC5)cccn4n3)cc2)CCN1CCc1ccccc1` (centres unmarked) [Example 2-470, N-methyl-1-(2-phenylethyl)-4-[4-[[8-[1-(4,4,4-trifluorobutanoyl)-3,6-dihydro-2H-pyridin-4-yl]-[1,2,4]triazolo[1,5-a]pyridin-2-yl]amino]benzoyl] piperazine-2-carboxamide] is 6.4-fold lower in IC50: 83.8 nM for the first, 13 nM for the second. The second is the more potent here.
